In brackets after ≈: the same amount, converted by molar mass.
Columns and labels:
[1] = tested on: UEA-1 binding sites on Caco-2 cell membrane preparations; assay: Single tier competition assay: inhibition of biotinylated UEA-1 binding, compound and biotinylated UEA-1 incubated together; set-up: species or system human
Description: (§1) The epithelial cell binding ability of compounds and mixtures obtained from synthetic combinatorial libraries was determined by competition assays. These assays were set up to measure the inhibition of binding of biotinylated UEA-1 to membrane preparations of the epithelial cell line Caco-2 (colon carcinoma cells-2), by compounds and mixtures of the combinatorial libraries. This cell line is a conventional model for epithelial cells.
(§2) Two competition inhibition assays were used in this case, namely single tier and two tier assays. These assays differed from each other in that in the single tier assay, the mixtures/compounds and the biotinylated UEA-1 were incubated together with the Caco-2 cell membrane preparations, while in case of the two-tier assay, the mixture/compounds were allowed to incubate alone with the cell membranes in the absence of biotinylated UEA-1, which was added in the next step. Addition of the extra step in the two-tier assay was to ensure that the compounds inhibiting the binding of biotinylated UEA-1 to the Caco-2 cell membranes were doing so by themselves binding to surface receptors on the Caco-2 cells and not to the biotinylated UEA-1. Each assay will be described in detail.
(§3) • 1. Confluent Caco-2 cell monolayers (grown in 75 cm^2 flasks for up to 1 week at 37° C. and 5% CO2) were washed twice in Dulbecco's PBS (DPBS). • 2. Cell monolayers were treated with 10 mM EDTA-DPBS for 5–10 min at 37° C. and cells were harvested by centrifugation at 1000 rpm for 5 min. • 3. Cells were washed 3 times in DPBS. • 4. […] The cells were homogenised for 30 sec. • 6. The homogenates were centrifuged in hard walled tubes at 40,000 rpm for 45 min at 4° C. • 7. […] The supernatant was removed and stored on ice. The procedure was repeated adding the second supernatant to the first. • 8. The protein concentration was determined using e.g. a Bio-Rad protein assay. • 9. All fractions were stored at −80° C. prior to use. Single Tier Assays: • 1. 96-well microtiter plates were coated with membrane preparations of Caco-2 cells either by allowing them to incubate on the plates for 2½ hours at room temperature or by incubating them overnight at 4° C. 100 μl of 10 μg/ml (in 0.05 M carbonate buffer, pH 9.6) of membrane preparation was added to each well. • 2. The plates were flicked out, patted dry and blocked with bovine serum albumin (BSA)/DPBS (200 μl/well) for 1 to 4 hours at room temperature after which they were washed three times in water. • 3. […] Control wells were also set up in which the Caco-2 cell membrane preparations were incubated with unconjugated UEA-1. […] Following overnight incubation the plates were washed thoroughly (3–6 times). The plates were flicked out, patted dry and biotinylated UEA-1 was detected with commercial Streptavidin conjugated to horseradish peroxidase (HRP) (CalBiochem). […] The plates were left to incubate for an hour at room temperature. • 6. The plates were then washed 3–6 times and the biotin-streptavidin binding was detected by adding an HRP substrate OPD (orthophenyl diamine) to each well. 100 μl/well of this substrate at a final concentration of 1.6 mg/ml was added to each well. Before adding to the wells, this substrate was activated by addition of 50 μl of 3% H2O2 per plate and the reaction was allowed to develop in the dark. • 7. The reaction was stopped by adding 50 μl of 4 N H2SO4 to each well after approximately 5–10 minutes or when sufficient colour had developed. The OD490 (absorbance at 490 nm) of each well was measured using a conventional 96 well plate reading spectrophotometer. Two Tier Assays: • 1. 96 well plates were coated with Caco-2 cell membrane preparations in the same manner as described in the single tier assay. • 2. […] 100 μl at these final concentrations were added to each well. • 4. The plates were then left to incubate overnight, a step that would allow the mixtures and compounds to interact with the Caco-2 cell membranes without the presence of the competitor (biotinylated UEA-1) itself. • 5. […]

[2] = tested on: UEA-1 binding sites on Caco-2 cell membrane preparations; assay: Two tier competition assay: compound incubated alone with membranes, biotinylated UEA-1 added in next step; set-up: species or system human; settings: for Avg % Inhib: Two Tier Assay, library TP1012
Description: as §1, §2, §3

[3] = library MSI 27, read-out: Single Tier Assay IC50
[4] = library MSI 27, read-out: Two Tier Assay IC50

IC50 [1, 3] [µM] | Two Tier Assay IC50 ([2]; library MSI 27) [µg/mL] | IC50 [2, 4] [µM] | SMILES | Avg % Inhib ([2]; 50 μg/ml) [%] | Avg % Inhib ([2]; 250 μg/ml) [%] | also measured
362 | 86.81 | 282 | CC(=O)NC(CCCCNC(=O)c1ccc(O)cc1)C(N)=O (stereo not drawn) [Cpd 15] |  |  | Single Tier Assay IC50 ([1]; library MSI 27): 111.40 µg/mL
773 | 108.30 | 335 | CC(=O)NC(CCCCNC(=O)c1cc(O)cc(O)c1)C(N)=O (stereo not drawn) [Cpd 16] |  |  | 
130 | 95.95 | 85.6 | COc1cc(C(=O)NCCCCC(NC(=O)c2cc(OC)c(O)c(OC)c2)C(=O)NCCCCC(NC(=O)C(CCCCNC(=O)c2cc(OC)c(O)c(OC)c2)NC(=O)c2cc(OC)c(O)c(OC)c2)C(N)=O)cc(OC)c1O (stereo not drawn) [Cpd 17] |  |  | Single Tier Assay IC50 ([1]; library MSI 27): 145.80 µg/mL
186 |  | 186 | CCOc1cc(C(=O)NCCCCC(NC(=O)c2cc(OCC)c(OCC)c(OCC)c2)C(=O)NCCCCC(NC(=O)C(CCCCNC(=O)c2cc(OCC)c(OCC)c(OCC)c2)NC(=O)c2cc(OCC)c(OCC)c(OCC)c2)C(N)=O)cc(OCC)c1OCC (stereo not drawn) [Cpd 19] |  |  | 
265 |  | 265 | NC(=O)C(CCCCNC(=O)C(CCCCNC(=O)c1cc(O)cc(O)c1)NC(=O)c1cc(O)cc(O)c1)NC(=O)C(CCCCNC(=O)c1cc(O)cc(O)c1)NC(=O)c1cc(O)cc(O)c1 (stereo not drawn) [Cpd 24] |  |  | 
255 |  | 255 | CCOc1cc(C(=O)NCCCCC(NC(=O)C(CCCCNC(=O)c2cc(OCC)c(OCC)c(OCC)c2)NC(=O)c2cc(OCC)c(OCC)c(OCC)c2)C(N)=O)cc(OCC)c1OCC (stereo not drawn) [Cpd 27] |  |  | 
 |  |  | CCCCC(CNC)N(C)CC(CC1CCCCC1)NC(=O)c1cc(O)c(O)c(O)c1 (stereo not drawn) [compound 86] | 61.61 | 76.23 | 
 |  |  | CCCC[C@H](CNC)N(C)C[C@H](CC1CCCCC1)NC(=O)c1cc(O)c(O)c(O)c1 [compound 90] | 53.66 | 69.94 | 
 |  |  | CCCC[C@@H](CNC)N(C)C[C@@H](CC1CCCCC1)NC(=O)c1cc(O)c(O)c(O)c1 [compound 92] | 54.8899 | 67.7 | 
 |  |  | CCCC[C@@H](CNC)N(C)C[C@H](CC1CCCCC1)NC(=O)c1cc(O)c(O)c(O)c1 [compound 96] | 42.93 | 65.78 | 
 |  |  | CNC[C@H](CC(C)C)N(C)C[C@H](Cc1ccccc1)NC(=O)c1cc(O)c(O)c(O)c1 [compound 125] | 61.02 | 77.78 | 
 |  |  | CNC[C@H](Cc1ccc(F)cc1)N(C)C[C@H](Cc1ccc(F)cc1)NC(=O)Cc1ccc(Cl)c(Cl)c1 [compound 141] | 41.43 | 72.64 | 
 |  |  | CNC[C@H](Cc1ccc(F)cc1)N(C)C[C@H](Cc1ccc(F)cc1)NC(=O)Cc1cccc(C(F)(F)F)c1 [compound 144] | 42.26 | 66.71 | 

SMILES | IC50 [1, 3] [µM] | Two Tier Assay IC50 ([2]; library MSI 27) [µg/mL] | IC50 [2, 4] [µM] | Avg % Inhib ([2]; 50 μg/ml) [%] | Avg % Inhib ([2]; 250 μg/ml) [%] | also measured
COc1ccc(C(=O)NCCCCC(NC(=O)c2ccc(OC)c(OC)c2)C(=O)NCCCCC(NC(=O)C(CCCCNC(=O)c2ccc(OC)c(OC)c2)NC(=O)c2ccc(OC)c(OC)c2)C(N)=O)cc1OC (stereo not drawn) [Cpd 18] | 105 | 90.21 | 85.3 |  |  | Single Tier Assay IC50 ([1]; library MSI 27): 111.30 µg/mL
NC(=O)C(CCCCNC(=O)C(CCCCNC(=O)c1cc(O)c(O)c(O)c1)NC(=O)c1cc(O)c(O)c(O)c1)NC(=O)C(CCCCNC(=O)c1cc(O)c(O)c(O)c1)NC(=O)c1cc(O)c(O)c(O)c1 (stereo not drawn) [Cpd 22] | 17.4 | 2.86 | 2.84 |  |  | IC 50 (ug/ml) 1st tier ([1]; Table 8, galloyl constructs): 10 µg/mL (≈ 9.9 µM); IC50 ([1]; Table 8, galloyl constructs, read-out: IC 50 (uM) 1st tier (converted)): 10 µM; Single Tier Assay IC50 ([1]; library MSI 27): 17.61 µg/mL; IC 50 (ug/ml) 2nd tier ([2]; Table 8, galloyl constructs): 1 µg/mL (≈ 0.99 µM); IC50 ([2]; Table 8, galloyl constructs, read-out: IC 50 (uM) 2nd tier): 1 µM
COc1cc(C(=O)NCCCCC(NC(=O)C(CCCCNC(=O)c2cc(OC)c(OC)c(OC)c2)NC(=O)c2cc(OC)c(OC)c(OC)c2)C(N)=O)cc(OC)c1OC (stereo not drawn) [Cpd 28] | 292 |  | 292 |  |  | 

From US7166296B2, “Pharmaceutical formulations and ligands for use therein; mimetics for UEA-1” (Sarlan, Ltd., priority 2001, dated 2007)
